How the values were obtained:
[1] = tested on: mouse model of human alcoholic hepatitis; experiment: AH (NIAAA) mouse model, 8-week efficacy and safety study, alone and with prednisolone
Excerpt: Mice were fed with the ethanol diet for four weeks, followed by 4 weeks of intervention (8 weeks total treatment).
Livers were collected at the end-point from all mice and weighed. Liver samples were processed for histology to assess steatosis, inflammatory infiltrates and fibrosis. Briefly, liver tissue was fixed in 4% paraformaldehyde and paraffin-embedded, sectioned into 5 m thickness, and stained with hematoxylin-eosin (H&E), Oil-Red O staining, and Masson's trichrome staining.
Safety testing: The safety of indeglitazar treatment was assessed by body weight measurements and full necropsy at endpoint. Mice were terminated from the experiment by isoflurane anesthesia and blood was collected by a cardiac bleed into EDTA-treated tubes, and then centrifuged to obtain plasma to conduct clinical chemistry including full liver and renal toxicology panel. A portion of the liver was analyzed for liver triglycerides and cholesterol levels by biochemical assays. […] Hearts were weighted and fixed in 10% NBF, paraffin embedded, and sectioned into 4-μm thick slices. H&E staining was used to investigate myocardial cell hypertrophy, and ventricle diameters by microscopy.

[2] = tested on: NASH; conditions: human, in vivo; cited from earlier work
[3] = tested on: alcoholic hepatitis; conditions: human, in vivo; cited from earlier work
[4] = indeglitazar 50 mg/kg, prednisolone 10 mg/kg, vs EtOH-treated vehicle control
[5] = indeglitazar 50 mg/kg, prednisolone 10 mg/kg, vs ethanol-treated vehicle control
[6] = indeglitazar 50 mg/kg, prednisolone 10 mg/kg, vs vehicle+EtOH
[7] = indeglitazar 50 mg/kg/day, prednisolone 10 mg/kg/day, vs ethanol-treated vehicle control

Question: Which results are given for `C[C@]12C=CC(=O)C=C1CC[C@@H]1[C@@H]2[C@@H](O)C[C@@]2(C)[C@H]1CC[C@]2(O)C(=O)CO` [Prednisolone, prednisolone, reference compound]?
Answer: liver histopathology: steatosis, hepatocellular karyomegaly, and ballooning ([1]; indeglitazar 50 mg/kg, prednisolone 10 mg/kg, data not shown): no significant effect; effect on liver hydroxyproline [1, 4]: no significant effect; effect on plasma adiponectin [1, 4]: no significant effect; effect on ALT [1, 5]: no significant effect; effect on AST [1, 5]: no significant effect; effect on total bilirubin [1, 5]: increased; decrease of plasma TGFβ [1, 6]: 56%; increase of adiponectin [1, 6]: +3.4%; effect on body weight [1, 7]: Neither EtOH (vs no EtOH vehicle control), indeglitazar, or prednisolone had a significant effect; effect on heart weight (actual) [1, 7]: Neither EtOH (vs no EtOH vehicle control), indeglitazar, or prednisolone had a significant effect; effect on overall survival ([1]; indeglitazar 50 mg/kg/day, prednisolone 10 mg/kg/day, vs ethanol-treated vehicle control, male and female mice): no significant effect; effect on liver triglycerides ([1]; prednisolone 10 mg/kg, vs vehicle+EtOH): no significant effect; increase of plasma TNF-α ([1]; prednisolone 10 mg/kg, vs vehicle+EtOH, P<0.0001): 123%; change of hydroxyproline (signed) ([1]; prednisolone 10 mg/kg, vs vehicle+EtOH, P>0.05): −7%

Question: For vitamin E, which “improvement of NASH, share of people treated” value [2] is on record?
Answer: about half

Question: Which “overall survival and liver damage in AH patients” value [3] does the source give for `CC(=O)CCCCn1c(=O)c2c(ncn2C)n(C)c1=O` [pentoxifylline] here?
Answer: failed to improve overall survival or to decrease liver damage
